Where two headings read alike, the source gives them in different places.
Columns and labels:
Type in all cases: biochemical
[1] = target: T1, Itk (Homo sapiens, UniProt Q08881); assay: Kinase inhibition assay (33P transfer), Itk; conditions: read-out: Itk-1
T1 construct: Kinases are expressed as either kinase domains or full length constructs; made in house
T1 sequence (Q08881 1-620): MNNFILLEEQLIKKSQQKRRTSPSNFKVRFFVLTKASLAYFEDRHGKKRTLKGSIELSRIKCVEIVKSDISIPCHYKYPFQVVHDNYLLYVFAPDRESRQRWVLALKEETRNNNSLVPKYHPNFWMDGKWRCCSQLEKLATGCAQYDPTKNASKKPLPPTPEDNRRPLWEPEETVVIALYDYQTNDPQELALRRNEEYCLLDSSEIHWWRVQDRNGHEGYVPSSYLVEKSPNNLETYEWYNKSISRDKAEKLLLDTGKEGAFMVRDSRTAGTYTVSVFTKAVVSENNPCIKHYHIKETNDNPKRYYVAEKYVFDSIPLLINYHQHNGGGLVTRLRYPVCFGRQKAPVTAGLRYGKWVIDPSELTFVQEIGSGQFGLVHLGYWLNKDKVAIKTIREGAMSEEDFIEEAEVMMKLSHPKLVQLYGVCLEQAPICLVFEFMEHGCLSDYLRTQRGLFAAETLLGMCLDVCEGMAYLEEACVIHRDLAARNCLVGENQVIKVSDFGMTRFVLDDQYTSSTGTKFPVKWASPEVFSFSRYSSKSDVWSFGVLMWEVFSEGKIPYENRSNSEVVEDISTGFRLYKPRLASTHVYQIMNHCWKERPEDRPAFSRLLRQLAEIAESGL
Summary of the method: (§1)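 Kinase domains or full-length enzymes, GST- or polyHis-tagged, were expressed in E. coli or baculovirus High Five cells and affinity-purified. Transfer of 33PO4 from ATP onto plate-bound poly(Glu,Tyr) 4:1 or poly(Arg,Ser) 3:1 was counted by liquid scintillation after a 0.5% phosphoric acid wash. IC50 = concentration halving incorporation.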

[2] = target: T2, Lck (Homo sapiens, UniProt P06239); assay: Kinase inhibition assay (33P transfer), Lck; conditions: read-out: Lck-1
T2 construct: Kinases are expressed as either kinase domains or full length constructs; made in house
T2 sequence (P06239 whole entry, species assumed, the tested form may be a part): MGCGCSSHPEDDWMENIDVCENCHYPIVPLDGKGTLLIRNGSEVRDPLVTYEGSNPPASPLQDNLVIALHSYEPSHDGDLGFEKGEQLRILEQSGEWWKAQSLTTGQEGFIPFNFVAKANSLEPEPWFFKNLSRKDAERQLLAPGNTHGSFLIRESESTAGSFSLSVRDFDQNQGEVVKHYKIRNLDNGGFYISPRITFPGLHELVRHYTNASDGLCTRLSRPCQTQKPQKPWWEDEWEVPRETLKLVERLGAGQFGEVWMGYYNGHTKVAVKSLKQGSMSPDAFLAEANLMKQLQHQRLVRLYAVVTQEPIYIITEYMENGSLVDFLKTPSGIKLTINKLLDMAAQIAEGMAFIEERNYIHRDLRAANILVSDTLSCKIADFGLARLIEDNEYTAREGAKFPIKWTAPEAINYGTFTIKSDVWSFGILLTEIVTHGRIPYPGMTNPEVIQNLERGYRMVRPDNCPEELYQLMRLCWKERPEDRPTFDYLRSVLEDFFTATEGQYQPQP
Summary of the method: (§2)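 Enzyme activity is taken as the amount of 33PO4 moved from ATP onto poly(Glu, Tyr) 4:1 or poly(Arg, Ser) 3:1 fixed to the plate surface. Unbound label is removed with 0.5% phosphoric acid before scintillation counting.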

[3] = target: T3, Tek (Homo sapiens, UniProt Q02763); assay: Kinase inhibition assay (33P transfer), Tek; conditions: read-out: Tek-1
T3 construct: Kinases are expressed as either kinase domains or full length constructs; made in house
T3 sequence (Q02763 23-1124, species assumed): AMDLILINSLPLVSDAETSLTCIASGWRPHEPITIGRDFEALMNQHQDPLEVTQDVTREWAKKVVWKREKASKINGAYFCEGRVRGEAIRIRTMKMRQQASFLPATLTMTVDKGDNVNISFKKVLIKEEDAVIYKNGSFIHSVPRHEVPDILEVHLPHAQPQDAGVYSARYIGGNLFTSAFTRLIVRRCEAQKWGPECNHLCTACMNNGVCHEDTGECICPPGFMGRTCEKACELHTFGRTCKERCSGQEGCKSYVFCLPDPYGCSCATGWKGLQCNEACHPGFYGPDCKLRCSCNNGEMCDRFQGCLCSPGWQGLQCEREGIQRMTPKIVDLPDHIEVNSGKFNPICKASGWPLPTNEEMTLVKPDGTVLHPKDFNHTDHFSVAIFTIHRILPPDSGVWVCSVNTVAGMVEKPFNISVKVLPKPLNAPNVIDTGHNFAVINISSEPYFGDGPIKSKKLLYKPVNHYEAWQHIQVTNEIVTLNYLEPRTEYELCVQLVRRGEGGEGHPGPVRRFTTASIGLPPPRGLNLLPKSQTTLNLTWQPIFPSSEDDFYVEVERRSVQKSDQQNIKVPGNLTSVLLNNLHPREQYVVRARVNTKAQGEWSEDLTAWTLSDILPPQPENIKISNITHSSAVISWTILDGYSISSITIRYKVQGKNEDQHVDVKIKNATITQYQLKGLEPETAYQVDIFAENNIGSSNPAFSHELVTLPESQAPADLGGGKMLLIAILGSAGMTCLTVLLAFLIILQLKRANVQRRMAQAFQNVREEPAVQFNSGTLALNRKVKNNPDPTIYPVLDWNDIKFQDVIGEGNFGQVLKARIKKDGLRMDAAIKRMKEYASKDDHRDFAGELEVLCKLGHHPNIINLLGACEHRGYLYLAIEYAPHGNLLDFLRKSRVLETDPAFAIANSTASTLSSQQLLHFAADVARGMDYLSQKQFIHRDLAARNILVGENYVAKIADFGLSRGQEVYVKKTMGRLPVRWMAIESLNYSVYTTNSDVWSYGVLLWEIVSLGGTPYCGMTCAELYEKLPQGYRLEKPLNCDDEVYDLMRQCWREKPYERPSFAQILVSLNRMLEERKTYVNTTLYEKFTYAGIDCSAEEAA
Summary of the method: as §1

[4] = target: T4, EGFR (Homo sapiens, UniProt P00533); assay: Kinase inhibition assay (33P transfer), EGFR; conditions: Table 2, kinase inhibition class; read-out: EGFR-1
T4 construct: Kinases are expressed as either kinase domains or full length constructs; made in house
T4 sequence (P00533 25-1210, species assumed): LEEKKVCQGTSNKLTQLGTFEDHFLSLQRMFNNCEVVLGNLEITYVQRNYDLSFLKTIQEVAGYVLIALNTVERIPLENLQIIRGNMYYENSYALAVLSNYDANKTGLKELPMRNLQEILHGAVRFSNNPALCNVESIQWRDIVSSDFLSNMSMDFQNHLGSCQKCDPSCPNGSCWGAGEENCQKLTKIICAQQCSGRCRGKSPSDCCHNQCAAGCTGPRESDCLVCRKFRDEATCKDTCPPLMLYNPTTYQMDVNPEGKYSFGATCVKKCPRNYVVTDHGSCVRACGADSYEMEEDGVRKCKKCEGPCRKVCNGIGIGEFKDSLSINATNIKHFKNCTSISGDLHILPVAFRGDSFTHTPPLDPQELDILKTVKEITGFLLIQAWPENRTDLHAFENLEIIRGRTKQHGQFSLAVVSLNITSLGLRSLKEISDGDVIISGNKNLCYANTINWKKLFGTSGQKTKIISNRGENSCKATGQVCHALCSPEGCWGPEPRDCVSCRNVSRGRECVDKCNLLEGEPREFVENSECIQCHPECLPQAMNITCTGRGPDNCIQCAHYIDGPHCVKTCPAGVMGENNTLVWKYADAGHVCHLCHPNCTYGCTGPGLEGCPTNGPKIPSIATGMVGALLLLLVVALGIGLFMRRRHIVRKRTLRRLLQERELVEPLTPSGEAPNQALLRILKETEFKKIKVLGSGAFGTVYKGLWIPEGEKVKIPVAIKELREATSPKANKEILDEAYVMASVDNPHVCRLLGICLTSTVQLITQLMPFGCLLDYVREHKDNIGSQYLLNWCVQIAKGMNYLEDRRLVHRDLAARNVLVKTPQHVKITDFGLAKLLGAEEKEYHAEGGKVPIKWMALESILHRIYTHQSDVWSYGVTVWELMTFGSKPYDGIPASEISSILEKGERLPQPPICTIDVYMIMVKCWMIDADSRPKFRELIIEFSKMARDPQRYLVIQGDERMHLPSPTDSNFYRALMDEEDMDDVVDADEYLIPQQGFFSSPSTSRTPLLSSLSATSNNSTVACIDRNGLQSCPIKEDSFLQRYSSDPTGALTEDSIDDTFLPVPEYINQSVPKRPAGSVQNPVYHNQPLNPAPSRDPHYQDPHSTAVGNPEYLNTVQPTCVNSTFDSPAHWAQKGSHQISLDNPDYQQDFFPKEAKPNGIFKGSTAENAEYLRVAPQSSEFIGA
Summary of the method: as §1

[5] = target: T5, c-Met (Homo sapiens, UniProt P08581); assay: Kinase inhibition assay (33P transfer), c-Met; conditions: Table 2, kinase inhibition class; read-out: Met-1
T5 construct: Kinases are expressed as either kinase domains or full length constructs; made in house
T5 sequence (P08581 25-1390): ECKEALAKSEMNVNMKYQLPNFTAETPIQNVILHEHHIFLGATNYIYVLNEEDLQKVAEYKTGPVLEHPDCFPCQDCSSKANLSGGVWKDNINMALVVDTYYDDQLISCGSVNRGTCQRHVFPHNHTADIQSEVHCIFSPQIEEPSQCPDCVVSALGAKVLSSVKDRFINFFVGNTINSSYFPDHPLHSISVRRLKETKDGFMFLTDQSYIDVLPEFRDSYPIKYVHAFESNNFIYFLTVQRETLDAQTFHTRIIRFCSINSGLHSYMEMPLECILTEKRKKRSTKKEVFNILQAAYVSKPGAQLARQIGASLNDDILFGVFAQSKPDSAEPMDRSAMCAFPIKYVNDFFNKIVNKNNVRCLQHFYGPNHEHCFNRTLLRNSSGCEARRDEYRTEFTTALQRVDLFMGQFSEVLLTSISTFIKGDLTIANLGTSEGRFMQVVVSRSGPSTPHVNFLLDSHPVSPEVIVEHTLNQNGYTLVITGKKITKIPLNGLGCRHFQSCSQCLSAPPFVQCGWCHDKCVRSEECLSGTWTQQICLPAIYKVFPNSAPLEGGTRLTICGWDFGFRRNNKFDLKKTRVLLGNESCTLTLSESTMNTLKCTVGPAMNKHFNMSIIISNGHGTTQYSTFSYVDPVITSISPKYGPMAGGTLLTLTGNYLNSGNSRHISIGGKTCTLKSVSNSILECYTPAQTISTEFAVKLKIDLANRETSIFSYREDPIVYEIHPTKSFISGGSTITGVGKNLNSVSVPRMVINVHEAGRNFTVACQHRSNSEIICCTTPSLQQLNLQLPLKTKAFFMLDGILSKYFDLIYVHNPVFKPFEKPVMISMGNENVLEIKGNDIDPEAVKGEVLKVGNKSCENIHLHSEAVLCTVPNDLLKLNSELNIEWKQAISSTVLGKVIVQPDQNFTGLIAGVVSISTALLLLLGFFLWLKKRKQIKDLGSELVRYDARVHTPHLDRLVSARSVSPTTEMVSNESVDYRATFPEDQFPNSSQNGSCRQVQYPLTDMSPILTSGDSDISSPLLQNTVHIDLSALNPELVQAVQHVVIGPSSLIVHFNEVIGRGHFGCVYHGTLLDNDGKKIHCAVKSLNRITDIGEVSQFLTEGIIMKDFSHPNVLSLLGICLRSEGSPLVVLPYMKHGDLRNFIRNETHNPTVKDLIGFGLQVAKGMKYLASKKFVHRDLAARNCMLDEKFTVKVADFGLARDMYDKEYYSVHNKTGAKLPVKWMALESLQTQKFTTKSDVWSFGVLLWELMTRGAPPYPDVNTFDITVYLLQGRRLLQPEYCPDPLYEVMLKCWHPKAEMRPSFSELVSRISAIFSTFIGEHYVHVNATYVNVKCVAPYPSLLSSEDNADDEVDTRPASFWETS
Summary of the method: as §1

[6] = target: T6, AKT (Homo sapiens, UniProt Q9Y243); assay: Kinase inhibition assay (33P transfer), AKT; conditions: Table 2, kinase inhibition class; read-out: AKT3-1
T6 construct: Kinases are expressed as either kinase domains or full length constructs; made in house
T6 sequence (Q9Y243 whole entry, the tested form may be a part): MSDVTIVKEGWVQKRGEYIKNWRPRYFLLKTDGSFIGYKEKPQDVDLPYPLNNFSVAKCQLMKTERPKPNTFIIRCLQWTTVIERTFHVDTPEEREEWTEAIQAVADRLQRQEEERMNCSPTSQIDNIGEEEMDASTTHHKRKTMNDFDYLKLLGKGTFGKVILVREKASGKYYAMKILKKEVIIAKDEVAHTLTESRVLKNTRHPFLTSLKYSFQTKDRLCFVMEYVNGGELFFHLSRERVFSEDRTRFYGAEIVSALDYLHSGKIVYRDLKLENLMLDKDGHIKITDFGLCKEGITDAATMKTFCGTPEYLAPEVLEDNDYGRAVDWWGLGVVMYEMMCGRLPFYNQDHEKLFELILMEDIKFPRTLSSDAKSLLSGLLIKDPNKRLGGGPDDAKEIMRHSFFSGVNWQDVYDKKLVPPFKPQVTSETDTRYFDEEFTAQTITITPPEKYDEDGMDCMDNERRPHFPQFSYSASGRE
Summary of the method: as §2

[7] = target: T7, Kdr (Homo sapiens, UniProt P35968); assay: Kinase inhibition assay (33P transfer), Kdr; conditions: read-out: KDR-1
T7 construct: Kinases are expressed as either kinase domains or full length constructs; made in house
Summary of the method: as §2

[8] = target: T8, Zap-70 (Homo sapiens, UniProt P43403); assay: Kinase inhibition assay (33P transfer), Zap-70; conditions: read-out: Zap-1
T8 construct: Kinases are expressed as either kinase domains or full length constructs; made in house
T8 sequence (P43403 1-619): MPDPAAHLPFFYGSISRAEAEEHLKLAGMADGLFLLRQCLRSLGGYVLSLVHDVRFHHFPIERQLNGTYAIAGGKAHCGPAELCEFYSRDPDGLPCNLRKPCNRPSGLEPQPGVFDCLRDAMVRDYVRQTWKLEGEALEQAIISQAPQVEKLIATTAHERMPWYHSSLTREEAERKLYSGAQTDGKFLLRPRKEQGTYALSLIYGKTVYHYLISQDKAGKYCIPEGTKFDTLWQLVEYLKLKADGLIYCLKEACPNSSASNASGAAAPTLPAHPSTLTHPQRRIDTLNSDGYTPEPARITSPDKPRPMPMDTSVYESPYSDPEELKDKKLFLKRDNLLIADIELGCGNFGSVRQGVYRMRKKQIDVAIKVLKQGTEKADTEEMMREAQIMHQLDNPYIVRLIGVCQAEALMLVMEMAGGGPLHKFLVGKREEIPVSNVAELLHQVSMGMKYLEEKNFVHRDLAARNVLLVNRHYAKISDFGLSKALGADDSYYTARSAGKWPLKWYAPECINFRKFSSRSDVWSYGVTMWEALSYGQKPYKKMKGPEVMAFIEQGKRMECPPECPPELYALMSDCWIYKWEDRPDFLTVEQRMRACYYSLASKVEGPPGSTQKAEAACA
Summary of the method: as §2

SMILES	IC50 ([1]; Table 3) [µM]	IC50 ([2]; Table 3) [µM]	IC50 [3] [µM]	IC50 [4] [µM]	IC50 [5] [µM]	IC50 [6] [µM]	IC50 ([7]; Table 3) [µM]	IC50 ([8]; Table 3) [µM]	IC50 [1] [µM]	IC50 [2] [µM]	IC50 [7] [µM]	IC50 [8] [µM]
O=c1[nH]c2ccccc2n1-c1ncnc(Nc2ccc(OC(F)(F)F)cc2)n1 [Compound 462]	> 11.6	9.01 to 11.6	6.18 to 9.01	> 11.6	9.01 to 11.6	> 11.6	> 11.6	6.18 to 9.01	–	–	–	–
COc1cc(Nc2ncnc(-n3c(N[C@H](CO)c4ccccc4)nc4ccccc43)n2)cc(OC)c1OC [Compound 1035]	–	–	> 8.76	> 8.76	> 8.76	> 8.76	–	–	> 8.76	> 8.76	< 0.779	> 8.76
Nc1nc2ccccc2n1-c1ncnc(Nc2ccc(-c3ccccc3)cc2)n1 [Compound 480]	–	–	1.05 to 6.33	1.05 to 6.33	1.05 to 6.33	1.05 to 6.33	–	–	9.22 to 11.9	1.05 to 6.33	1.05 to 6.33	1.05 to 6.33
O=c1[nH]c2ccccc2n1-c1ncnc(Nc2cccc(-c3cnco3)c2)n1 [Compound 418]	9.42 to 12.1	1.08 to 6.46	9.42 to 12.1	1.08 to 6.46	> 12.1	1.08 to 6.46	< 1.08	> 12.1	–	–	–	–
COc1cc(Nc2ncnc(Nc3cccc(NC(=O)O[C@@H]4CCOC4)c3)n2)cc(OC)c1OC [Compound 694]	–	–	7.25 to 9.33	0.829 to 4.97	> 9.33	> 9.33	–	–	4.97 to 7.25	0.829 to 4.97	0.829 to 4.97	> 9.33
COc1cc(Nc2ncnc(Nc3cccc4ncccc34)n2)cc(OC)c1OC [Compound 695]	–	–	5.93 to 8.65	5.93 to 8.65	> 11.1	> 11.1	–	–	0.989 to 5.93	< 0.989	< 0.989	> 11.1
Nc1nc2ccccc2n1-c1ncnc(N2C(=O)c3ccccc3C2=O)n1 [Compound 653]	–	–	> 12.6	> 12.6	> 12.6	> 12.6	–	–	> 12.6	> 12.6	> 12.6	> 12.6
COc1cc(Nc2ncnc(-n3c(OCc4ccccn4)nc4ccccc43)n2)cc(OC)c1OC [Compound 690]	–	–	> 9.27	> 9.27	> 9.27	> 9.27	–	–	> 9.27	> 9.27	< 0.824	> 9.27
COc1cc(Nc2ncnc(-c3cccc4ccccc34)n2)cc(OC)c1OC [Compound 611]	–	–	6.18 to 9.01	> 11.6	> 11.6	> 11.6	–	–	9.01 to 11.6	1.03 to 6.18	1.03 to 6.18	> 11.6
COc1cc(Nc2ncnc(-n3c(Nc4cc(OC)c(OC)c(OC)c4)nc4ccccc43)n2)cc(OC)c1OC [Compound 402]	> 8.04	> 8.04	> 8.04	> 8.04	> 8.04	> 8.04	0.715 to 4.29	> 8.04	–	–	–	–
COc1cc(Nc2ncnc(-c3cccnc3NCCCN)n2)cc(OC)c1OC [Compound 1078]	–	–	> 10.9	> 10.9	> 10.9	> 10.9	–	–	> 10.9	> 10.9	0.972 to 5.83	> 10.9
COc1cc(Nc2ncnc(Nc3nccs3)n2)cc(OC)c1OC [Compound 442]	> 12.5	> 12.5	> 12.5	> 12.5	> 12.5	> 12.5	6.66 to 9.71	> 12.5	–	–	–	–
COc1cc(Nc2ncnc(NN3CCCC3)n2)cc(OC)c1OC [Compound 1002]	–	–	> 13	> 13	> 13	> 13	–	–	> 13	> 13	10.1 to 13	> 13
COc1cc(OC)nc(Nc2ncnc(-n3c(=O)[nH]c4ccccc43)n2)n1 [Compound 491]	–	–	1.09 to 6.55	> 12.3	> 12.3	> 12.3	–	–	> 12.3	> 12.3	9.55 to 12.3	> 12.3
O=C(O)Cc1ccc(Nc2ncnc(Nc3cc(-c4ccccc4)n[nH]3)n2)cc1 [Compound 982]	–	–	1.03 to 6.2	1.03 to 6.2	1.03 to 6.2	9.03 to 11.6	–	–	1.03 to 6.2	1.03 to 6.2	< 1.03	1.03 to 6.2
COc1cc(Nc2ncnc(-n3c(NCCc4ccncc4)nc4ccccc43)n2)cc(OC)c1OC [Compound 948]	–	–	> 9.03	> 9.03	> 9.03	> 9.03	–	–	4.81 to 7.02	4.81 to 7.02	0.802 to 4.81	> 9.03
Nc1nc2ccccc2n1-c1ncnc(Nc2ccc3c(c2)OCO3)n1 [Compound 526]	–	–	1.15 to 6.91	1.15 to 6.91	1.15 to 6.91	6.91 to 10.1	–	–	1.15 to 6.91	1.15 to 6.91	< 1.15	1.15 to 6.91
COc1cc(Nc2ncnc(Nc3cc(-c4cccc(Cl)c4)n[nH]3)n2)cc(OC)c1OC [Compound 495]	–	–	> 9.91	0.881 to 5.29	0.881 to 5.29	> 9.91	–	–	> 9.91	5.29 to 7.71	7.71 to 9.91	> 9.91
Nc1ncnc(Nc2ccc3c(c2)OCO3)n1 [Compound 1025]	> 19.5	> 19.5	> 19.5	15.1 to 19.5	> 19.5	> 19.5	10.4 to 15.1	15.1 to 19.5	–	–	–	–
COc1cc(Nc2ncnc(-n3c(NCc4ncccc4C)nc4ccccc43)n2)cc(OC)c1OC [Compound 941]	–	–	> 9.03	> 9.03	> 9.03	> 9.03	–	–	> 9.03	> 9.03	> 9.03	> 9.03
Nc1nc2ccccc2n1-c1ncnc(Nc2ccc(S(N)(=O)=O)cc2)n1 [Compound 923]	–	–	> 11.8	> 11.8	1.05 to 6.28	> 11.8	–	–	1.05 to 6.28	9.15 to 11.8	< 1.05	> 11.8

From patent US7074789B2, “Kinase inhibitors” (Amgen Inc., priority 1999, dated 2006)
